According to publication PMC7797783, “Identification of Active Compounds From Yi Nationality Herbal Formula Wosi Influencing COX-2 and VCAM-1 Signaling” (Frontiers in Pharmacology, 2020):
Values joined by “and” are separate entries in the source; they are usually repeats but may differ in a detail not shown here. Identical values can stand only once.

Legend:
COX-2 = target: T1, COX-2 (Homo sapiens, UniProt P35354); test: In vitro cyclooxygenase inhibition assay (colorimetric COX inhibitor screening kit, PGE2 synthesis), COX-2; format: biochemical; conditions: for IC50: duplicate determinations, 0.01 to 550 μM; for COX-2/COX-1 selectivity ratio: ratio of IC50 values (μM)
T1 construct: purchased Cayman Chemical Company 560131
T1 sequence (P35354 18-604): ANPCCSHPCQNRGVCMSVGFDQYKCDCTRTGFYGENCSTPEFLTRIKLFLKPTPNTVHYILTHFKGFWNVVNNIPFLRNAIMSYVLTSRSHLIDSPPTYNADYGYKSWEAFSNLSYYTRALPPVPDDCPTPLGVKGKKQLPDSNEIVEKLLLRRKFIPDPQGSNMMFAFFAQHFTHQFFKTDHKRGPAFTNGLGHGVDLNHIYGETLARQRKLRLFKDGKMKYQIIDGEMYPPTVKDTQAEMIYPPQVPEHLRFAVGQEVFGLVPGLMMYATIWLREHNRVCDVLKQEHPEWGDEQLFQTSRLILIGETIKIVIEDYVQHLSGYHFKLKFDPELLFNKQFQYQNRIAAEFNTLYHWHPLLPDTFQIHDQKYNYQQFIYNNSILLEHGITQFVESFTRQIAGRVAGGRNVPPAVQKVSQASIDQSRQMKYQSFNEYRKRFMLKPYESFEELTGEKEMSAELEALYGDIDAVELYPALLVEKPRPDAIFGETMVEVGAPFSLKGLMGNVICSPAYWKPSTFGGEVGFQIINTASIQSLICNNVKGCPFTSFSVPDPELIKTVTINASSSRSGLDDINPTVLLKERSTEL

COX-1 = target: T2, COX-1 (Ovis aries, UniProt P05979); test: In vitro cyclooxygenase inhibition assay (colorimetric COX inhibitor screening kit, PGE2 synthesis), COX-1; format: biochemical; conditions: duplicate determinations; 0.01 to 550 μM
T2 construct: purchased Cayman Chemical Company 560131
T2 sequence (P05979 25-600): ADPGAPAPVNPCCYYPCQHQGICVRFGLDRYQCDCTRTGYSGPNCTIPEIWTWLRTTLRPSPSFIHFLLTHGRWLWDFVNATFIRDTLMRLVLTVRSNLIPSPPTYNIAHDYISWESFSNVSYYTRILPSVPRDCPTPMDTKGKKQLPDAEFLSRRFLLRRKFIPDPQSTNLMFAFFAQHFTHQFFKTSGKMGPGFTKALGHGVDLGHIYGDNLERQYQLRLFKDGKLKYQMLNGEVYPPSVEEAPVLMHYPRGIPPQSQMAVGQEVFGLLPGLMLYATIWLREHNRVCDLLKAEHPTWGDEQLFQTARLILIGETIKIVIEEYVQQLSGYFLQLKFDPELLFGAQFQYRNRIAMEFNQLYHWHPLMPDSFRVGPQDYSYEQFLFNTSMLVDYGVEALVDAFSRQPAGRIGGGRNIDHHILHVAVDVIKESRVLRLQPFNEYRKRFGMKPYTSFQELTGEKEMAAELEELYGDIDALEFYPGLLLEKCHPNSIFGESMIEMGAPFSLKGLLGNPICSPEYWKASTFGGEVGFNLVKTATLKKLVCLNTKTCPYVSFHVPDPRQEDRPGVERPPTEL

hyperuricemia rats = test: Hyperuricemia rat model (adenine/dry yeast), uric acid in serum and urine; format: in vivo, Sprague-Dawley (SD) rats; conditions: oral, 5 days, Wosi 0.5, 1, 2 g/kg, vs model group
Experimental: The rats were divided into six groups, and each group comprised of 10 animals which were control, model, Benzbromarone (0.01 mg/kg), Wosi (0.5, 1, and 2 g/kg) groups. Briefly, 10% dry yeast solution of 1.25% adenine (10 ml/kg) was given orally administration for 15 consecutive days to induce the hyperuricemia in each animal except those of control groups. The solution of 0.5% CMC-Na was given to the control groups. On the 10th day, the Wosi and Benzbromarone were orally administered continuously 24 h 5 days. Normal saline was given to the control and model groups. Collecting 14th and 15th days of rat urine (24 h) and recording the volume. It was centrifuged at 3,500 g for 5 min to remove the precipitations. On the 15th day, rats were first anesthetized with pentobarbital sodium (i.p., 70 mg/kg body weight), 1 h after the final drug treatment. Then the blood sample was collected and centrifuged at 3000 g for 5 min to obtain the serum. Serum were kept under −20°C.
According to manufacturer’s instructions, using a standard diagnostic kit, was used in order to evaluate the concentration of uric acid concentration in serum and urine.

[1] = test system: COX-2 and VCAM-1 protein expression; test: Immunohistochemistry of COX-2 and VCAM-1 protein in ankle joint synovial tissue of MSU-induced rats; format: in vivo, Sprague-Dawley (SD) rats; conditions: 7 days, colchicine 0.2 mg/kg
Experimental: (§1) Rats were divided as aforementioned. Wosi at three doses (0.5, 1, and 2 g/kg) were orally administration once daily for 7 days in Wosi groups. Meanwhile, colchicine was orally administration once daily for 7 days in colchicine groups. The injection of the MSU crystal was performed on the fifth day for each animal except those of control groups. 0.9% sterile saline was given to the control group. On the seventh day, rats were first anesthetized with pentobarbital sodium (i.p., 70 mg/kg body weight) at 30 min after the last dosing, Blood samples were taken from rat femoral artery with heparinized needles which were allowed to clot for 1 h at room temperature and centrifuged at 3,000 g for 10 min to obtain serum. Serum samples were stored at −20°C until the ELISA testing, then rats were sacrificed by femoral artery exsanguination. Meanwhile, the ankle joint surrounding tissues were collected for the immunohistochemical analyze and frozen at −80°C.
The method of immunohistochemical staining for the ankle joint was as following the previous studies. Briefly, the sections were deparaffinized and […] by xylene and ethanol. […] Finally, the sections were washed with TBS three times, and antibody binding was detected using 3,3′-diaminobenzidine tetrahydrochloride (DAB). […] Stained sections were dehydrated and then each section was analyzed by microscope and image output system.

[2] = test system: serum cytokines IL-6, IL-1β, IL-2, IL-10, IFN-γ; test: Serum inflammatory cytokines (ELISA) in MSU-induced rats; format: in vivo, Sprague-Dawley (SD) rats; conditions: oral 7 days, Wosi 0.5, 1, 2 g/kg, colchicine 0.2 mg/kg
Experimental: as §1
The levels of interleukin 6 (IL-6), interleukin 1 beta, interleukin 2 (IL-2), interleukin 10 (IL-10), and interferon gamma (IFN-γ) in the serum were measured using ELISA kits according to manufacturer’s instructions.

cyclooxygenase-2 = test system: cyclooxygenase-2; parameters: method as in Ringbom et al., 1998; conditions: ref Ringbom et al., 1998; cited from earlier work

C[C@@H]1O[C@@H](O[C@@H]2[C@@H](O)[C@H](O[C@H]3CC[C@]4(C)[C@H]5CC=C6[C@@H]7CC(C)(C)CC[C@]7(C(=O)O)CC[C@@]6(C)[C@]5(C)CC[C@H]4C3(C)C)O[C@H](C(=O)O)[C@H]2O)[C@H](O)[C@H](O)[C@H]1O [Compound a, 3-O-[α-L-pyranrhamnose(1-3)-β-D-pyranglucuronic acid]-oleanolic acid]
IC50 (COX-2): 298 µM | COX-2/COX-1 selectivity ratio (COX-2): 0.67 | IC50 (COX-1): 443 µM

CC1(C)CC[C@]2(C(=O)O[C@@H]3O[C@H](CO)[C@@H](O)[C@H](O)[C@H]3O)CC[C@]3(C)C(=CC[C@@H]4[C@@]5(C)CC[C@H](O[C@@H]6O[C@H](C(=O)O)[C@@H](O)[C@H](O)[C@H]6O)C(C)(C)[C@@H]5CC[C@]43C)[C@@H]2C1 [Compound b, 3-O-(β-D-pyranglucuronic acid)-oleanolic acid-28-O-β-D-pyran glucoside]
IC50 (COX-2): 294 µM | COX-2/COX-1 selectivity ratio (COX-2): 0.60 | IC50 (COX-1): 488 µM

C[C@@H]1O[C@@H](O[C@@H]2[C@@H](O)[C@H](O[C@H]3CC[C@]4(C)[C@H]5CC=C6[C@@H]7CC(C)(C)CC[C@]7(C(=O)O[C@@H]7O[C@H](CO)[C@@H](O)[C@H](O)[C@H]7O)CC[C@@]6(C)[C@]5(C)CC[C@H]4C3(C)C)O[C@H](C(=O)O)[C@H]2O)[C@H](O)[C@H](O)[C@H]1O [Compound c, 3-O-[α-L-pyranrhamnose(1-3)-β-D-pyranglucuronic acid]-oleanolic acid-28-O-β-D-pyran glucoside]
IC50 (COX-2): 384 µM and 349 µM | COX-2/COX-1 selectivity ratio (COX-2): 0.65 and 0.64 | IC50 (COX-1): 538 µM

CCc1oc2ccccc2c1C(=O)c1cc(Br)c(O)c(Br)c1 [benzbromarone, Benzbromarone]
serum level of uric acid (hyperuricemia rats): recovered to that of the normal animals | urine uric acid excretion (24 h) (hyperuricemia rats): recovered to that of the normal animals

COc1cc2c(c(OC)c1OC)-c1ccc(OC)c(=O)cc1[C@@H](NC(C)=O)CC2 [colchicine, Colchicine]
protein expression of VCAM-1 in synovial tissue (IHC, IOD) ([1]; Wosi 0.5, 1, 2 g/kg): recovered to that of the normal animals | protein expression of COX-2 in synovial tissue (IHC, IOD) ([1]; Wosi particularly at 0.5 and 2 g/kg/day): recovered to that of the normal animals | serum level of IFN-γ [2]: inhibited IL-2, IL-1β, IL-6, and IFN-γ secretion | serum level of IL-1β [2]: inhibited IL-2, IL-1β, IL-6, and IFN-γ secretion | serum level of IL-2 [2]: inhibited IL-2, IL-1β, IL-6, and IFN-γ secretion | serum level of IL-6 [2]: inhibited IL-2, IL-1β, IL-6, and IFN-γ secretion | serum level of IL-10 [2]: increased IL-10 secretion

CC1(C)CC[C@]2(C(=O)O)CC[C@]3(C)C(=CC[C@@H]4[C@@]5(C)CC[C@H](O)C(C)(C)[C@@H]5CC[C@]43C)[C@@H]2C1 [oleanolic acid]
selectivity of inhibition of cyclooxygenase-2 catalyzed prostaglandin biosynthesis (cyclooxygenase-2): selective inhibitors of cyclooxygenase-2 catalyzed prostaglandin biosynthesis

C[C@H]1[C@H](C)CC[C@]2(C(=O)O)CC[C@]3(C)C(=CC[C@@H]4[C@@]5(C)CC[C@H](O)C(C)(C)[C@@H]5CC[C@]43C)[C@H]12 [ursolic acid]
selectivity of inhibition of cyclooxygenase-2 catalyzed prostaglandin biosynthesis (cyclooxygenase-2): selective inhibitors of cyclooxygenase-2 catalyzed prostaglandin biosynthesis
